# Source: the supplement of paper PMC11208160
# Test: recombinant barcode read abundance after kanamycin selection (control-corrected) (log10(CPM+1)); higher = more efficient recombination; sequences stand for … in AGTGCAGAGAAAATCGGCCAGTTTTCTCTGCCTGCAGTCCGCATGCCGT…AGATTTATGCAGCGGACTGCCTTTCTCCCAAAGTGATAAACCGGACAGTATCATGGACCGGTTTTCCCGGTAATCCGTATTTGCAAGGTTGGTTTCACT; site = the 11-nt target
# Procedure, shortened: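 In a pooled screen in E. coli, targets were paired with target-binding loops of the IS621 bridge RNA. Each oligo carried a promoter, a target, a barcode and the first 104 bridge RNA bases driven by J23119, and was Gibson-cloned into a vector holding the remaining 73 bp and a T7-inducible recombinase before co-electroporation with a donor plasmid. Duplicate platings went onto chloramphenicol/ampicillin LB agar as the control or onto chloramphenicol/ampicillin/kanamycin with 0.1 mM IPTG. Recombination efficiency is the averaged, control-corrected count per million of barcodes at recombinant junctions, given as log10(CPM+1).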
# 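Also: IS621 recombinase and bridge RNA in Escherichia coli cells.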
row,Sequence,recombinant barcode read abundance (log10)
1,CTATAGACTTGGGTTCTAACCTGTTGCCT (site CTATGGACTAG),0.475
2,CTATAGACTTGGGTTCTAACCTGTTGCCT (site CTATTGACTAG),0.317
3,CTATCCACTTGGGTTCTAACCTGTTGCCT (site CTATCCACTAG),1.63
4,CTATCCACTTGGGTTCTAACCTGTTGCCT (site CTGTCGACTAG),0.873
5,CTATGACCTTGGGTTCTAACCTGTTGCCT (site CTATGACCTAA),0.124
6,CTATGACCTTGGGTTCTAACCTGTTGCCT (site CTATGACCTAC),0.23
7,CTATGACCTTGGGTTCTAACCTGTTGCCT (site CTATGACCTAG),1.9
8,CTATGACCTTGGGTTCTAACCTGTTGCCT (site CTATGACCTAT),0.104
9,CTATGTGCTTGGGTTCTAACCTGTTGCTT (site CTATGTGCTAA),0.337
10,CTATGTGCTTGGGTTCTAACCTGTTGCTT (site CTATGTGCTAC),0.37
11,CTATGTGCTTGGGTTCTAACCTGTTGCTT (site CTATGTGCTAG),1.1
12,CTATGTGCTTGGGTTCTAACCTGTTGCTT (site CTATGTGCTAT),0.746
13,CTATTAACTTGGGTTCTAACCTGTTGCTA (site ACTCACCCTCC),0.00656
14,CTATTAACTTGGGTTCTAACCTGTTGCTA (site CTATTAACTTA),0.328
15,CTATTCCCTTGGGTTCTAACCTGTTGCTG (site CTATTCCCTCA),1.99
16,CTATTCCCTTGGGTTCTAACCTGTTGCTG (site CTCTTCCCTAA),0.185
17,CTATTCGCTTGGGTTCTAACCTGTTGCCT (site CTATTCACTAG),0.295
18,CTATTCGCTTGGGTTCTAACCTGTTGCCT (site CTATTCCCTAG),0.0147
19,CTATTCGCTTGGGTTCTAACCTGTTGCCT (site CTATTCGCTAG),1.49
20,CTATTCGCTTGGGTTCTAACCTGTTGCCT (site CTATTCTCTAG),0.218
21,CTATTGACTTGGGTTCTAACCTGTTGCCT (site CTATAGACTAG),0.0514
22,CTATTGACTTGGGTTCTAACCTGTTGCCT (site CTATCGACTAG),0.246

row,Sequence,recombinant barcode read abundance (log10)
1,CTATTGACTTGGGTTCTAACCTGTTGCCT (site CTATGGACTAG),0.11
2,CTATTGACTTGGGTTCTAACCTGTTGCCT (site CTATTGACTAG),1.42
3,CTATTGTCTTGGGTTCTAACCTGTTGCGC (site CTATTGTCTAC),0.06
4,CTATTGTCTTGGGTTCTAACCTGTTGCGC (site CTATTGTCTCC),0.0404
5,CTATTGTCTTGGGTTCTAACCTGTTGCGC (site CTATTGTCTGC),2.77
6,CTATTGTCTTGGGTTCTAACCTGTTGCGC (site CTATTGTCTTC),0.909
7,CTATTTACTTGGGTTCTAACCTGTTGCCT (site CTAATTACTAG),0.0674
8,CTATTTACTTGGGTTCTAACCTGTTGCCT (site CTACTTACTAG),0.302
9,CTATTTACTTGGGTTCTAACCTGTTGCCT (site CTAGTTACTAG),0.19
10,CTATTTACTTGGGTTCTAACCTGTTGCCT (site CTATTTACTAG),0.411
11,CTCAATTCTTGGGTTCTAACCTGTTGCAA (site CTCAATACTTC),0.0332
12,CTCAATTCTTGGGTTCTAACCTGTTGCAA (site CTCAATTCTTT),0.0558
13,CTCAATTCTTGGGTTCTAACCTGTTGCAT (site CTCAATTCTAT),0.812
14,CTCAATTCTTGGGTTCTAACCTGTTGCAT (site CTCCATTCTAT),0.0304
15,CTCAATTCTTGGGTTCTAACCTGTTGCAT (site CTCGATTCTAT),0.27
16,CTCAATTCTTGGGTTCTAACCTGTTGCAT (site CTCTATTCTAT),0.148
17,CTCATAACTTGGGTTCTAACCTGTTGCCG (site CTCATAACTCG),0.328
18,CTCATAACTTGGGTTCTAACCTGTTGCCG (site CTCTAAACTCG),0.2
19,CTCATATCTTGGGTTCTAACCTGTTGCTT (site CTCATATCTAA),1.18
20,CTCATATCTTGGGTTCTAACCTGTTGCTT (site GAATGGACTTC),0.0724
21,CTCCAACCTTGGGTTCTAACCTGTTGCCT (site CGCCCACCTAG),0.144
22,CTCCAACCTTGGGTTCTAACCTGTTGCCT (site CTCCAACCTAG),1.54

row,Sequence,recombinant barcode read abundance (log10)
1,CTCCAACCTTGGGTTCTAACCTGTTGCGG (site CTCCAACCTCC),2.14
2,CTCCAACCTTGGGTTCTAACCTGTTGCGG (site CTCCAGCCTCC),0.461
3,CTCCATACTTGGGTTCTAACCTGTTGCCT (site CTCCATACTAG),0.814
4,CTCCATACTTGGGTTCTAACCTGTTGCCT (site CTCCATCCTAG),0.0983
5,CTCCATACTTGGGTTCTAACCTGTTGCCT (site CTCCATGCTAG),0.23
6,CTCCATACTTGGGTTCTAACCTGTTGCCT (site CTCCATTCTAG),0.0874
7,CTCCGAACTTGGGTTCTAACCTGTTGCAG (site CTCCGAACTCT),1.12
8,CTCCGAACTTGGGTTCTAACCTGTTGCAG (site TCATATCCTAG),0.174
9,CTCCGGACTTGGGTTCTAACCTGTTGCCT (site CTCCGGACTAG),2.02
10,CTCCGGACTTGGGTTCTAACCTGTTGCCT (site CTCCGTACTAG),0.276
11,CTCCGTACTTGGGTTCTAACCTGTTGCCT (site CTCCGGACTAG),0.0835
12,CTCCGTACTTGGGTTCTAACCTGTTGCCT (site CTCCGTACTAG),0.858
13,CTCCTAGCTTGGGTTCTAACCTGTTGCTT (site CTCCGAGCTTA),0.00954
14,CTCCTAGCTTGGGTTCTAACCTGTTGCTT (site CTCCTAGCTAA),0.277
15,CTCCTCCCTTGGGTTCTAACCTGTTGCCT (site CTCCTCCCTAG),1.29
16,CTCCTCCCTTGGGTTCTAACCTGTTGCCT (site CTCCTCTCTAG),0.275
17,CTCCTCTCTTGGGTTCTAACCTGTTGCAT (site AAGTGAGCTTG),0.0369
18,CTCCTCTCTTGGGTTCTAACCTGTTGCAT (site CTCCTCTCTAT),2.03
19,CTCGAACCTTGGGTTCTAACCTGTTGCTG (site CTCGAACCTCA),1.93
20,CTCGAACCTTGGGTTCTAACCTGTTGCTG (site CTCGAATCTTA),0.077
21,CTCGGAACTTGGGTTCTAACCTGTTGCCT (site CTCGGAACTAG),0.374
22,CTCGGAACTTGGGTTCTAACCTGTTGCCT (site CTCGGACCTAG),0.257

row,Sequence,recombinant barcode read abundance (log10)
1,CTCGGAACTTGGGTTCTAACCTGTTGCCT (site CTCGGAGCTAG),0.325
2,CTCGGAACTTGGGTTCTAACCTGTTGCCT (site CTCGGATCTAG),0.366
3,CTCGGACCTTGGGTTCTAACCTGTTGCCT (site CTCGGAACTAG),0.209
4,CTCGGACCTTGGGTTCTAACCTGTTGCCT (site CTCGGACCTAG),2.42
5,CTCGGACCTTGGGTTCTAACCTGTTGCCT (site CTCGGAGCTAG),0.147
6,CTCGGACCTTGGGTTCTAACCTGTTGCCT (site CTCGGATCTAG),0.263
7,CTCGGATCTTGGGTTCTAACCTGTTGCCT (site CTCGGAACTAG),0.0461
8,CTCGGATCTTGGGTTCTAACCTGTTGCCT (site CTCGGACCTAG),0.391
9,CTCGGATCTTGGGTTCTAACCTGTTGCCT (site CTCGGAGCTAG),0.0938
10,CTCGGATCTTGGGTTCTAACCTGTTGCCT (site CTCGGATCTAG),1.3
11,CTCGGATCTTGGGTTCTAACCTGTTGCTA (site CTCGGATCTAA),0.135
12,CTCGGATCTTGGGTTCTAACCTGTTGCTA (site CTCGGATCTCA),0.15
13,CTCGGATCTTGGGTTCTAACCTGTTGCTA (site CTCGGATCTGA),0.0177
14,CTCGGATCTTGGGTTCTAACCTGTTGCTA (site CTCGGATCTTA),0.67
15,CTCGGATCTTGGGTTCTAACCTGTTGCTC (site CTCGGATCTAA),0
16,CTCGGATCTTGGGTTCTAACCTGTTGCTC (site CTCGGATCTCA),0.0519
17,CTCGGATCTTGGGTTCTAACCTGTTGCTC (site CTCGGATCTGA),0.991
18,CTCGGATCTTGGGTTCTAACCTGTTGCTC (site CTCGGATCTTA),0.138
19,CTCGGATCTTGGGTTCTAACCTGTTGCTG (site CTCGGATCTAA),0.296
20,CTCGGATCTTGGGTTCTAACCTGTTGCTG (site CTCGGATCTCA),1.08
